The values that follow come from patent publication US20070202574A1, “Novel Saccharothrix Strain an Antibiotics Derived Therefrom, i.e. Mutactimycins and Aldgamycins” (Institut National Polytechnique de Toulouse, priority 2004, published 2007).

Data set [1] relates to Micrococcus luteus ATCC 9314. In words: MIC, antimicrobial spectrum. The settings on record: for activity in words: M. luteus; for MIC: ATCC9314, Micrococcus luteus ATCC 9314. It counts as cell-based.
For data set [2], the system named is Bacillus subtilis ATCC 6633. Briefly: MIC, antimicrobial spectrum. The settings on record: for MIC: ATCC6633, Bacillus subtilis ATCC 6633. The format is cell-based.
For data set [3], the system named is Klebsiella pneumoniae CIP 82.91. In words: MIC, antimicrobial spectrum. The format is cell-based. As to conditions: for activity in words: K. pneumoniae; for MIC: Klebsiella pneumoniae, CIP82, Klebsiella pneumoniae CIP 82.91.
A further data set concerns Bacillus subtilis. Briefly: HPLC fractions tested against Bacillus subtilis (gelose diffusion test). As to conditions: concentrated HPLC peak fractions. The format is cell-based. As for the experimental part:
A sample of the strain SA 103 taken from an immature inclined culture was inoculated into an Erlenmeyer flask containing 50 ml of the sterile culture medium containing 0.4t glucose, a 1% malt extract and a 0.4% yeast extract (adjusted to pH 7.2 before sterilisation) and placed in culture on a rotary stirrer (250 rpm) at 30° C. for two days. For producing antibiotics, 3 ml of culture medium were transferred to 500 ml Erlenmeyer flasks, each containing 100 ml of the above medium, and placed in culture for 10 days using the same conditions. The production of total antibacterial activity was carried out on a nutrient gelose, by a gelose diffusion test against Bacillus sutilis ATCC 6633. Inhibition of growth was examined after 24 hours of incubation at 30° C. Antimicrobial activity was estimated by measuring the diameter of the inhibition zone. The dry weight of the mycelium was determined in Eppendorf tubes filled with 1 ml of homogenized culture medium and dried at 105° C. for 24 hours (Pfefferle et al. J. Biotech. 80:135-142, 2000).
The butanolic extract, of a red colour, was concentrated on the Rotavapor. An aliquot of this extract was first sent through a Sephadex LH 20 column using methanol in double distilled water (80%) as the mobile phase. However, the separation of the antibiotics (visualisation by the naked eye and by the antibiography) was not conclusive. This step was therefore eliminated and the butanolic extract was purified directly by a reverse phase HPLC using a C18 column and isocratic conditions (63% methanol in water), a flow rate of 1.5 ml/min and detection at 220 nm. The fractions corresponding to all the peaks obtained on the profile were collected separately, concentrated and tested against Bacillus subtilis. […] These antibiotics were purified by HPLC after 3 to 4 reinjections in the same conditions as previously.

A short description of data set [4]: Relative solubility in solvents. It counts as physicochemical. As to conditions: value = list of solvents; for Relative solubility: Highly soluble (solvents) / Relative solubility: Insoluble (solvents) / Relative solubility: Medium soluble (solvents): wrapped cells given line by line. An excerpt:
The antibiotics P11, PR, F and G are bright red in colour at neutral pH, yellow at acid pH and violet-blue at basic pH. P11 is the majority antibiotic and PR, the minority antibiotic. These antibiotics were the subject of the following […] analyses: UV visible light, infrared, mass spectrometry and NMR of the proton and carbon 13 (with studies of the correlations). Supplementary tests, such a solubility, determination of Rf by CCM and elemental analysis (the latter only for P11) were also carried out.

Data set [5] concerns Staphylococcus aureus CIP 53156. In words: MIC, antimicrobial spectrum. It counts as cell-based. The settings on record: for activity in words: Staphylococcus aureus CIP 53156; for MIC: Staphylococcus aureus, CIP53156, Staphylococcus aureus CIP 53156.
Data set [6] relates to Mycobacterium smegmatis ATCC 607. Briefly: MIC, antimicrobial spectrum. The format is cell-based. As to conditions: for activity in words: Mycobacterium smegmatis; for MIC: Mycolicibacterium smegmatis, ATCC607, Mycobacterium smegmatis ATCC 607.
The subject of data set [7] is Agrobacterium tumefaciens No 2410. In words: MIC, antimicrobial spectrum. The format is cell-based. As to conditions: NO2410.
Data set [8] has as its system Staphylococcus aureus CIP 7625. In words: MIC, antimicrobial spectrum. The format is cell-based. As to conditions: CIP7625.
In data set [9] the test system is Pseudomonas syringae No 1882. In words: MIC, antimicrobial spectrum. It counts as cell-based. The settings on record: NO1882.
For data set [10], the system named is Escherichia coli ATCC 10536. Briefly: MIC, antimicrobial spectrum. The settings on record: ATCC10536. The format is cell-based.
Data set [11] has as its system Saccharomyces cerevisiae ATCC 4226. In words: MIC, antimicrobial spectrum. The settings on record: ATCC4226. The format is cell-based.
Data set [12] concerns Mucor ramannianus NRRL 1829. In words: MIC, antimicrobial spectrum. The format is cell-based. The settings on record: Umbelopsis ramanniana, NRRL1829.
The test system of data set [13] is Listeria monocytogenes CIP 82110. Briefly: MIC, antimicrobial spectrum. The format is cell-based. The settings on record: CIP82110, Listeria monocytogenes CIP 82110.

Values after ≈ are worked out from the molar mass of the structure shown. Values joined by “and” are separate entries in the source; they are usually repeats but may differ in a detail not shown here. Equal values may be shown once. “Also recorded” adds a separate entry of the source. Some results are limits rather than exact numbers.

As usually defined, the MIC is the smallest concentration in the dilution series that meets the test's criterion for growth inhibition. A lower MIC goes with greater potency.

Turning to `COc1cccc2c1C(=O)c1c(O)c3c(c(O)c1C2=O)CC(C)(O)CC3OC1OC(C)C(O)C(O)C1O` (stereo not drawn) [F, mutactimycin F], the activity in words result in data set [1], in [2], in [3], in data set [5] and in [6] was “active” throughout. Moreover, the “activity of the collected HPLC fraction against Bacillus subtilis” value (from here on “activity of the collected HPLC fraction”) in the data set on Bacillus subtilis is “active”. Further, the “soluble in (solvents)” value in data set [4] was “water, n-butanol, 1-propanol and ethanol”. Further, in data set [4], the “Relative solubility: Highly soluble (solvents)” value is recorded as “n-BuOH, 1-PrOH”. Besides, the “Relative solubility: Insoluble (solvents)” value is “n-hexane and toluene” in data set [4]; “H2O, CH2Cl2, CHCl3; also recorded: EtOAc, Me2CO, n-hexane,; also recorded: toluene” in data set [4] (listed as Mutactimycin F). Also, in [4], the “Relative solubility: Medium soluble (solvents)” value was “MeOH, EtOH”.
Take `CC1OC(Oc2cccc3c2C(=O)c2c(O)c4c(c(O)c2C3=O)CC(C)(O)CC4O)C(O)C(O)C1O` (stereo not drawn) [G, mutactimycin G]: the activity in words entry in data set [1], in data set [2], in data set [3], in [5] and in [6] was “active” in each case. Further, in the data set with Bacillus subtilis, the “activity of the collected HPLC fraction” value is on record as “active”. For the same compound, the “soluble in (solvents)” value in [4] was “water, n-butanol, 1-propanol, methanol and ethanol”. Besides, the “Relative solubility: Highly soluble (solvents)” value in [4] is “n-BuOH, l-PrOH”. The “Relative solubility: Insoluble (solvents)” value in [4] was “chloroform, dichloromethane, ethyl acetate, n-hexane and toluene; also recorded: H2O, CH2Cl2, CHCl3, EtOAc,; also recorded: Me2CO, n-hexane, toluene”. Moreover, in data set [4], the “Relative solubility: Medium soluble (solvents)” value is recorded as “MeOH, EtOH”.
For the compound `COC1C(OCC2C(C)OC(=O)/C=C/C(C)C(OC3OC(C)CC(O)(C(C)O)C3O)C(C)CC(C)C(=O)/C=C/C3OC32)OC(C)C(O)C1OC` (stereo not drawn) [P8, aldgamycin H], the minimal inhibitory concentration (MIC) in [1] is 1 µg/mL (≈ 1.4 µM); in data set [7], above 100 µg/mL; in data set [8], above 100 µg/mL; in data set [9], above 100 µg/mL; in [10] it was above 100 µg/mL; in data set [11], above 100 µg/mL. In [12], this compound came in with a minimal inhibitory concentration (MIC) above 100 µg/mL. Moreover, the “activity of the collected HPLC fraction” value in the data set on Bacillus subtilis is “active”. Further, in data set [4], the “Relative solubility: Highly soluble (solvents)” value was “methanol, n-butanol, ethanol, 1 and 2-propnol, ethyl acetate, acetone, chloroform and dichloromethane; also recorded: MeOH, EtOR, Me2CO,; also recorded: n-BuOH, 1-PrOH, 2-; also recorded: PrOH, CH2Cl2,; also recorded: EtOAc, CHCl3”.
As to `COC1C(OCC2C(C)OC(=O)/C=C/C(C)C(OC3OC(C)CC4(OC(=O)OC4C)C3O)C(C)CC(C)C(=O)/C=C/C3OC32)OC(C)C(O)C1OC` (stereo not drawn) [P10a, aldgamycin G], the MIC in data set [1] was determined as 1 µg/mL (≈ 1.35 µM); in data set [2], 1 µg/mL (≈ 1.35 µM); in data set [3] it was 0.1 µg/mL (≈ 0.135 µM); in data set [5] it was 1 µg/mL (≈ 1.35 µM); in data set [6] it was 50 µg/mL (≈ 67.5 µM); in data set [13] it was 30 µg/mL (≈ 40.5 µM). The “activity of the collected HPLC fraction” value in the data set on Bacillus subtilis is “active”. Besides, the “soluble in (solvents)” value in data set [4] was “n-butanol, 1 and 2-propanol, methanol, dichloromethane, ethyl acetate, chloroform, acetone and ethanol”. Further, the “Relative solubility: Highly soluble (solvents)” value in data set [4] was “methanol, n-butanol, ethanol, 1 and 2-propnol, ethyl acetate, acetone, chloroform and dichloromethane; also recorded: MeOH, EtOH, Me2CO,; also recorded: n-BuOH, 1-PrOH, 2-; also recorded: PrOH, CH2Cl2,; also recorded: EtOAc, CHCl3”.
Regarding `COC1C(OCC2/C=C/C=C/C(=O)C(C)CC(C)C(OC3OC(C)CC(O)(C(C)O)C3O)C(C)/C=C/C(=O)OC2C)OC(C)C(O)C1OC` (stereo not drawn) [P10b, aldgamycin P10b], the minimum inhibitory concentration (MIC) in data set [1] was 1 µg/mL (≈ 1.43 µM); in [2] it was 1 µg/mL (≈ 1.43 µM); in data set [7] it was above 100 µg/mL; in data set [3], 0.1 µg/mL (≈ 0.143 µM); in data set [5] it was 1 µg/mL (≈ 1.43 µM); in [8], above 100 µg/mL. Also, the MIC is 50 µg/mL (≈ 71.5 µM) in data set [6]; 30 µg/mL (≈ 42.9 µM) in data set [13]; above 100 µg/mL in data set [9]; above 100 µg/mL in [10]; above 100 µg/mL in [11]; above 100 µg/mL in data set [12]. Besides, the “activity of the collected HPLC fraction” value in the data set with Bacillus subtilis is on record as “active”. For the same compound, the “Relative solubility: Highly soluble (solvents)” value in [4] is “methanol, n-butanol, ethanol, 1 and 2-propnol, ethyl acetate, acetone, chloroform and dichloromethane”. The “Relative solubility: Insoluble (solvents)” value in [4] is “water and n-hexane”.
Consider `COc1cccc2c1C(=O)c1c(O)c3c(c(O)c1C2=O)CC(C)(O)CC3OC1OC(C)C(O)C(OC)C1O` (stereo not drawn) [P11, mutactimycin C], for which the minimum inhibitory concentration (MIC) in data set [1] was 5 µg/mL (≈ 9.42 µM); in [2], 40 µg/mL (≈ 75.4 µM); in data set [7], above 100 µg/mL; in [3], 5 µg/mL (≈ 9.42 µM); in data set [5], 10 µg/mL (≈ 18.8 µM); in data set [8], above 100 µg/mL. Also, the MIC is 75 µg/mL (≈ 141 µM) in [6]; 50 µg/mL (≈ 94.2 µM) in data set [13]; above 100 µg/mL in [9]; above 100 µg/mL in [10]; above 100 µg/mL in data set [11]; above 100 µg/mL in data set [12]. For the same compound, in the data set with Bacillus subtilis, the “activity of the collected HPLC fraction” value is recorded as “active”. Moreover, the “Relative solubility: Highly soluble (solvents)” value in data set [4] is “water, methanol, n-butanol, ethanol, 1-propanol and acetone; also recorded: MeOH, Me2CO, H20, n-; also recorded: BuOH, EtOH, 1-PrOH”. Moreover, the “Relative solubility: Insoluble (solvents)” value in data set [4] is “n-hexane and toluene”. The “Relative solubility: Medium soluble (solvents)” value in data set [4] was “CH2Cl2, CHCl3, EtOAc, and 2-PrOH”.
As for `COC1C(O)C(C)OC(OC2CC(C)(O)Cc3c(O)c4c(c(O)c32)C(=O)c2c(OC3OC(C)C(O)C(O)C3O)cccc2C4=O)C1O` (stereo not drawn) [PR, mutactimycin PR], the minimal inhibitory concentration (MIC) in data set [1] is 50 µg/mL (≈ 75.5 µM); in data set [2], 75 µg/mL (≈ 113 µM); in data set [7], above 100 µg/mL; in [3], 40 µg/mL (≈ 60.4 µM); in [5] it was 50 µg/mL (≈ 75.5 µM); in data set [8], above 100 µg/mL. Moreover, the MIC in [6], in data set [13], in data set [9], in data set [10], in data set [11] and in data set [12] was above 100 µg/mL throughout. For the same compound, the activity in words result in data set [1], in data set [2], in [3], in data set [5] and in [6] was “active” throughout. Also, in the data set on Bacillus subtilis, the “activity of the collected HPLC fraction” value is reported as “active”. Besides, the “Relative solubility: Highly soluble (solvents)” value in data set [4] was “water, methanol and ethanol”; in data set [4] (listed as mutactimycin PR), “MeOH, EtOH, H2O”. In addition, the “Relative solubility: Insoluble (solvents)” value in [4] is “chloroform, dichloromethane, ethyl acetate, n-hexane and toluene”; in data set [4] (listed as mutactimycin PR) it was “CH2Cl2, CHCl3,; also recorded: EtOAc, n-hexane,; also recorded: toluene”. Moreover, the “Relative solubility: Medium soluble (solvents)” value in data set [4] (listed as mutactimycin PR) was “Me2CO, n-BuOH, 1-; also recorded: PrOH, 2-PrOH”.
